This note sets out measurements from patent US12083143B2, “MLK-regulated microRNAs in angiogenesis and tumor development” (University of Massachusetts, priority 2018, dated 2024).

In assay [1] the test system is primary MLEC cells. The assay can be described thus: qPCR of pro-angiogenic genes in primary MLEC after miR146a mimic transfection, 90 minutes hypoxia. The note with it: mimic transfected 48 hours, 1% O2, versus control. Type of assay: cell-based, mouse. On the procedure:
Either control or miR146a mimic were transfected into primary MLEC cells for 48 hours. Cells were incubated for 90 minutes in hypoxia chamber in the presence of 1% O2. RNA was isolated and qPCR was performed for genes as noted.
(§1) Total RNA was extracted from cells and tissues with the RNeasy Mini Kit (Qiagen) or TRIzol reagent (Invitrogen), and 1 μg of total RNA was reverse transcribed with oligo(dT) primers for cDNA synthesis. The expression of mRNA was examined by quantitative PCR analysis using a QuantStudio™ 6 Flex Real-Time PCR System (Applied Biosystems). Taqman© assays were used to quantitate Pgf, Adam8, Mmp9, Angptl4, Hprt (Mm00446968—m1) and Gapdh (4352339E-0904021) mRNA (Applied Biosystems). The 2^−ΔΔCT method is used for relative quantification of gene as described elsewhere^5,6. reference genes of Hprt and Gapdh have been used to normalize the PCRs in each sample.
(In general: Quantitative PCR measures a nucleic acid by following its amplification.)

Assay [2] concerns mouse lung endothelial cell (MLEC). The assay can be described thus: qRT-PCR of angiogenesis related genes in WT MLEC after miR146a mimic, 4 hours post hypoxia. It counts as cell-based. The note with it: mimic 48 hours, versus control. The protocol: (A-D) mRNA was isolated from WT mouse lung endothelial cell (MLEC) treated either with control or miR146a mimic for 48 hours and qRT-PCR was performed for different angiogenesis related genes after 4 hours post hypoxia
Quiescent monolayers of WT and Mlk2/3−/− primary endothelial cell MLECs were exposed to normoxia (21% O2) or hypoxia (1% O2) for 0-24 h in a hypoxia chamber. After exposure cells were immediately harvested and examined for expression of genes by qPCR or immunoblots.
as §1

Assay [3] has as its system LLC1 cells. The assay can be described thus: LLC1 lung tumor formation after tail vein injection (experimental metastasis). The settings on record: 1×10^6 LLC1 cells with MLK inhibitor or solvent in 200 ul PBS into tail vein of WT mice; lung isolated after 20 days. Type of assay: in vivo, mouse. The protocol: 1×10^6 LLC1 cells, with either MLK inhibitor (URMC-099) or solvent in 200 ul of sterile PBS were injected into the tail vein of WT mice (12-16 week of age). After 20 days of injection Lung was isolated (A) and tumor number were counted (Control—White bar; MLK inhibitor—Black bar) (B).
We also tested the role of MLK inhibitor in Lung tumor formation. […] After 20 days of injection Lung was isolated and tumor number were counted (Control—White bar; MLK inhibitor—Black bar).

Turning to “ugagaacugaauuccauggguu (SEQ ID NO:3) [miR146a mimic]”, the “expression of pro-angiogenic factors (VEGF, Angptl4, Angpt2, MMP9) by qPCR” value is “down-regulated” in assay [1] and “suppressed the pro-angiogenic factors” in assay [1] (listed as miR146a). Further, the “angiogenesis related gene expression by qRT-PCR” value in assay [2] is recorded as “mimic the MLK deficient phenotype”.

As to `CN1CCN(Cc2ccc(-c3cnc4[nH]cc(-c5ccc6[nH]ccc6c5)c4c3)cc2)CC1` [URMC-099], the “LLC1 tumor formation in vivo (lung tumor number)” value in assay [3] was “suppressed LLC1 tumor formation in vivo”.
